For one data set, the system named is C. albicans ATCC 90028. The data set can be described thus: Antifungal activity: MIC/MFC, disc-diffusion. The data set is classed as cell-based, Candida albicans. Particulars: Candida albicans, ATCC90028; read-out: MIC. The method, then:
(§1) Direct antimicrobial activity was determined against the following standard strains: (1) Gram-positive cocci: methicillin-sensitive Staphylococcus aureus ATCC 6538P (MSSA), methicillin-resistant S. aureus subsp. aureus ATCC 43300 (MRSA), S. epidermidis ATCC 12228, Enterococcus faecium ATCC 6057, E. faecalis ATCC 29212, Bacillus subtilis ATCC 6633; (2) Gram-negative bacteria from Enterobacteriales order: Klebsiella pneumoniae ATCC 13883, Escherichia coli ATCC 25922, Enterobacter cloacae DSM 6234, Proteus mirabilis ATCC 12453, Serratia marcescens ATCC 13880; (3) Gram-negative non-fermentative rods: Acinetobacter baumannii ATCC 19606, Pseudomonas aeruginosa ATCC 27853, Stenotrophomonas maltophilia ATCC 12714, S. maltophilia ATCC 13637, Burkholderia cepacia ATCC 25416, Bordetella bronchiseptica ATCC 4617; (4) yeasts: Candida albicans ATCC 90028, C. krusei ATCC 6258, C. parapsilosis ATCC 22019, C. tropicalis (Castellani) Berkhout ATCC 750, C. tropicalis IBA 171, C. guilliermondii IBA 155, and Saccharomyces cerevisiae ATCC 9763. Moreover, 5 clinical strains of methicillin-resistant S. aureus were also included: NMI 664 K, NMI 1576 K, NMI 1712 K, NMI 1991 K, and NMI 2541 K. All strains were stored at −80 °C. Prior to testing, each bacterial strain was subcultured twice on tryptic soy agar TSA (bioMerieux) medium and yeast strains on Sabouraud dextrose agar (bioMerieux) for 24–48 h at 30 °C to ensure viability. The antimicrobial activity was evaluated as previously described[26] by the disc-diffusion method and the MIC determination assays according to the EUCAST (ref. [71] and [72]) and CLSI (ref. [53] and [73]) recommendations. Assessment of bactericidal (MBC) and fungicidal (MFC) activities was performed according to the CLSI recommendations.[54,74] The following reference agents were used: fluconazole (in the case of fungi), linezolid (for Gram-positive bacteria), and nitrofurantoin (for Gram-negative rods). The new benzosiloxaboroles were dissolved in DMSO (Sigma).

Another data set deals with C. krusei ATCC 6258. In words: Antifungal activity: MIC/MFC, disc-diffusion. Conditions: Pichia kudriavzevii, ATCC6258; read-out: MIC. Format: cell-based. Here is the method: as §1, with “The following reference agents were used: fluconazole (in the case of fungi), linezolid (for Gram-positive bacteria), and nitrofurantoin (for Gram-negative rods).” left out
A general note: In agar diffusion tests the substance spreads into inoculated agar from a disc or well.

The subject of another data set is E. cloacae DSM 6234. In words: Antibacterial activity: MIC/MBC, MIC with PAβN, disc-diffusion. Format: cell-based, Enterobacter cloacae. Particulars: E. cloacae DSM 6234; for MIC: Enterobacter cloacae, DSM6234, read-out: MIC. Here is the method:
as §1, with “The following reference agents were used: fluconazole (in the case of fungi), linezolid (for Gram-positive bacteria), and nitrofurantoin (for Gram-negative rods).” left out
Considering that the MDR efflux pumps often contribute to Gram-negative rod resistance, the MIC values of studied agents, with or without the pump inhibitor, PAβN (20 μg mL^−1) (Sigma), were determined.[75] The MIC was determined using Mueller–Hinton II broth medium (MHB) (Becton Dickinson) by the broth microdilution method, according to the CLSI guideliness.[53] To minimize the influence of PAβN on the destabilization of bacterial cell covers, the tests were conducted in the presence of 1 mM MgSO4 (Sigma).[76] At least a 4-fold reduction in the MIC value after the addition of PAβN was considered significant.[56,77]

The test system of data set [1] is Human normal lung fibroblasts MRC-5. In words: MTT-based viability (cytotoxicity) assay. Here is the method: To evaluate the cytotoxic effect of the tested compounds, an MTT-based assay was performed. […] Moreover, based on available IC50 and MIC (for standard and clinical S. aureus MRSA strains) values, the selectivity index (SI) was calculated for several compounds as the IC50/MIC ratio (Table 5).[60]
MRC-5 pd30 human fibroblasts (ECACC) were cultured in MEME, Minimum Essential Medium Eagle (Merck), supplemented with 10% fetal bovine serum (Merck), 2 mM L-glutamine, antibiotics (100 U mL^−1 penicillin, 100 μg mL^−1 streptomycin, Merck) and 1% non-essential amino acids (Merck). Cells were grown in 75 cm^2 cell culture flasks (Sarstedt), in a humidified atmosphere of CO2/air (5/95%) at 37 °C. MTT-based viability assay was conducted as described previously.[26] Optical densities were measured at 570 nm using a BioTek microplate reader. All measurements were carried out in three replicates and the results expressed as a percent of viable cells versus control cells. […] The selectivity index (SI) was calculated as [drawing 30] , in accordance with previously described protocols.[60]

Broadly, the MIC is the lowest concentration that inhibits growth of the organism. As a reminder, the IC50 is the midpoint of a concentration-inhibition curve. Low values mean inhibition by little substance, high ones a need for much substance.

SMILES strings stand for the structures. ≈ marks a conversion by molar mass, not a printed value.

As to `CC(=O)CCSc1c(F)cc2c(c1F)[Si](C)(C)OB2O` [Compound 3, 4-((5,7-Difluoro-3-hydroxy-1,1-dimethyl-1,3-dihydrobenzo[c][1,2,5]oxasilaborol-6-yl)thio)butan-2-one], the MIC with C. albicans ATCC 90028 was greater than 400 µg/mL; in the data set on C. krusei ATCC 6258 it was 200 µg/mL (≈ 632 µM); in the data set on E. cloacae DSM 6234, greater than 400 µg/mL.
`C[Si]1(C)OB(O)c2cc(F)c(SCCC(=O)ON3C(=O)CCC3=O)c(F)c21` [Compound 5, 2,5-Dioxopyrrolidin-1-yl 3-((5,7-difluoro-3-hydroxy-1,1-dimethyl-1,3-dihydrobenzo-[c][1,2,5]oxasilaborol-6-yl)thio)propanoate]: the minimal inhibitory concentration (MIC) with C. albicans ATCC 90028, with C. krusei ATCC 6258 and with E. cloacae DSM 6234 was greater than 400 µg/mL each time.
Take `C[Si]1(C)OB(O)c2cc(F)c(SCCC(N)=O)c(F)c21` [Compound 7, 3-((5,7-Difluoro-3-hydroxy-1,1-dimethyl-1,3-dihydrobenzo[c][1,2,5]oxasilaborol-6-yl)thio)propanamide]: the minimum inhibitory concentration (MIC) in the data set with C. albicans ATCC 90028, with C. krusei ATCC 6258 and in the data set with E. cloacae DSM 6234 was greater than 400 µg/mL throughout.
For `C[Si]1(C)OB(O)c2cc(F)c(SCCC(=O)N3CCOCC3)c(F)c21` [Compound 8, 3-((5,7-Difluoro-3-hydroxy-1,1-dimethyl-1,3-dihydrobenzo[c][1,2,5]oxasilaborol-6-yl)thio)-1-morpholinopropan-1-one], the MIC in the data set with C. albicans ATCC 90028, in the data set on C. krusei ATCC 6258 and with E. cloacae DSM 6234 was greater than 400 µg/mL each time.
On to `C[Si]1(C)OB(O)c2cc(F)c(SCCC(=O)Nc3ncccn3)c(F)c21` [Compound 9, 3-((5,7-Difluoro-3-hydroxy-1,1-dimethyl-1,3-dihydrobenzo[c][1,2,5]oxasilaborol-6-yl)thio)-N-(pyrimidin-2-yl)propanamide], for which the MIC with C. albicans ATCC 90028, in the data set on C. krusei ATCC 6258 and in the data set on E. cloacae DSM 6234 was greater than 400 µg/mL in each case.
For `C[Si]1(C)OB(O)c2cc(F)c(SCCC(=O)Nc3cnccn3)c(F)c21` [Compound 10, 3-((5,7-Difluoro-3-hydroxy-1,1-dimethyl-1,3-dihydrobenzo[c][1,2,5]oxasilaborol-6-yl)thio)-N-(pyrazin-2-yl)propanamide], the minimum inhibitory concentration (MIC) in the data set with C. albicans ATCC 90028, with C. krusei ATCC 6258 and in the data set on E. cloacae DSM 6234 was greater than 400 µg/mL each time.
On to `Cc1cc(NC(=O)CCSc2c(F)cc3c(c2F)[Si](C)(C)OB3O)no1` [Compound 11, 3-((5,7-Difluoro-3-hydroxy-1,1-dimethyl-1,3-dihydrobenzo[c][1,2,5]oxasilaborol-6-yl)thio)-N-(5-methylisoxazol-3-yl)propanamide], for which the MIC in the data set with C. albicans ATCC 90028, in the data set on C. krusei ATCC 6258 and in the data set on E. cloacae DSM 6234 was greater than 400 µg/mL throughout.
For the compound `C[Si]1(C)OB(O)c2ccc(SC3CC(=O)NC3=O)c(F)c21` (stereo not shown) [Compound 13, 3-((7-Fluoro-3-hydroxy-1,1-dimethyl-1,3-dihydrobenzo[c][1,2,5]oxasilaborol-6-yl)thio)pyrrolidine-2,5-dione], the MIC in the data set on C. albicans ATCC 90028 is greater than 400 µg/mL; with C. krusei ATCC 6258, greater than 400 µg/mL; in the data set on E. cloacae DSM 6234 it was 400 µg/mL (≈ 1230 µM). Also, the “-fold reduction of MIC in the presence of PAβN” value in the data set on E. cloacae DSM 6234 (PAβN 20 μg mL^−1, MHB + 1 mM MgSO4) is reported as 4 -fold.
As to `C[Si]1(C)OB(O)c2cc(F)c(S(=O)(=O)N3CCOCC3)c(F)c21` [Compound 29, 5,7-Difluoro-1,1-dimethyl-6-(morpholinosulfonyl)benzo[c][1,2,5]oxasilaborol-3(1H)-ol], the “viability of MRC-5” value is given as 90.1±3.4 % of control ± SD in data set [1] (6.25 µg·mL−1, 48 h); 90.6±4.5 % of control ± SD in data set [1] (12.5 µg·mL−1, 48 h); 86.8±4.3 % of control ± SD in data set [1] (25 µg·mL−1, 48 h); 80.8±3.4 % of control ± SD in data set [1] (50 µg·mL−1, 48 h); 74.1±0.5 % of control ± SD in data set [1] (100 µg·mL−1, 48 h); 69.6±2.4 % of control ± SD in data set [1] (200 µg·mL−1, 48 h). The “viability of MRC-5” value in data set [1] (400 µg·mL−1, 48 h) is recorded as 60.4±5.2 % of control ± SD. Further, the concentration for half-maximal inhibition (IC50) in data set [1] (Homo sapiens, MRC5, 48 h) is greater than 400 µg/mL. Besides, the minimal inhibitory concentration (MIC) in the data set with E. cloacae DSM 6234 is greater than 400 µg/mL.

For the origin of these results see PMC11110727, “Exploiting thiol-functionalized benzosiloxaboroles for achieving diverse substitution patterns – synthesis, characterization and biological evaluation of promising antibacterial agents” (RSC Medicinal Chemistry, 2024).
